Data reported in PMC5200956 (ChemMedChem, 2016).
Like-named read-outs stand apart in the source and are kept apart here.

Tests used:
[1] = Cytotoxicity for Vero cells; assay type: cell-based; conditions: African green monkey
T. gondii (tachyzoites) [2] = assay: T. gondii tachyzoites growth assay; assay type: cell-based, Toxoplasma gondii; conditions: means ± SD, n = 3
T. cruzi (amastigotes) [3] = assay: T. cruzi amastigote growth assay; assay type: cell-based, Trypanosoma cruzi; conditions: for EC50: read-out: T. cruzi growth EC50, intracellular amastigotes, means ± SD, n = 3; for antiparasitic activity against T. cruzi (in words): amastigotes
T. cruzi (amastigotes) [4] = conditions: read-out: T. cruzi growth EC50; cited from earlier work
[5] = tested on: T. cruzi squalene synthase (TcSQS); conditions: cited from earlier work; for IC50: read-out: TcSQS IC50, enzymatic activity of TcSQS
T. gondii (tachyzoites) [6] = conditions: read-out: T. gondii growth EC50; cited from earlier work
Vero cells = assay: Cytotoxicity for Vero cells; assay type: cell-based; conditions: read-out: Cytotoxicity EC50
HhFPPS = target: T1, HhFPPS (Homo sapiens, UniProt P14324); assay: HhFPPS enzyme inhibition; assay type: biochemical; conditions: read-out: HhFPPS IC50; means ± SD, n = 3
T1 sequence (P14324 67-419 limits assumed): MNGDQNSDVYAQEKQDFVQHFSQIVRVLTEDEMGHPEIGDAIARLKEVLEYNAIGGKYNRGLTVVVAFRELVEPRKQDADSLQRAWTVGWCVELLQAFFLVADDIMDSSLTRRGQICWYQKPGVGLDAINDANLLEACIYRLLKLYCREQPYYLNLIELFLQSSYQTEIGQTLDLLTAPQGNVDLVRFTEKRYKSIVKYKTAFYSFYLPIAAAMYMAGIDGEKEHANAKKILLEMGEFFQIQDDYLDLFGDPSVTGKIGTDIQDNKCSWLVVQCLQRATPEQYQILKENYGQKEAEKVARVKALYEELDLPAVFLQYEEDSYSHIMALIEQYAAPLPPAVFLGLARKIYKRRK

TgFPPS = TgFPPS enzyme inhibition; assay type: biochemical, Toxoplasma gondii; conditions: read-out: TgFPPS IC50; means ± SD, n = 3
TcFPPS = target: T2, TcFPPS (Trypanosoma cruzi, UniProt Q8WS26); assay: TcFPPS enzyme inhibition; assay type: biochemical; conditions: read-out: TcFPPS IC50; means ± SD, n = 3
T2 sequence (Q8WS26 1-425): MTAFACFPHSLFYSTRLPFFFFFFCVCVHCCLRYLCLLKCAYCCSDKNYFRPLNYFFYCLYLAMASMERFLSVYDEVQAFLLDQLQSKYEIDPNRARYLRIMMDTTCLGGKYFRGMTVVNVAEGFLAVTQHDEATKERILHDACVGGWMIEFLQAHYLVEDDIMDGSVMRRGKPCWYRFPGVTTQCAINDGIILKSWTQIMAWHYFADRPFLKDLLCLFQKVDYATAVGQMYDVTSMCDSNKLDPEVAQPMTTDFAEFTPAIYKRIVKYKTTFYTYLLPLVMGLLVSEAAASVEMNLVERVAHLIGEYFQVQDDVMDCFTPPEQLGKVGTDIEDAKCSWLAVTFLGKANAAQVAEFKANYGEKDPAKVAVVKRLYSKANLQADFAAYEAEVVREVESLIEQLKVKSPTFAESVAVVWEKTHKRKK

[7] = Toxoplasma gondii, read-out: T. gondii growth EC50, tachyzoites
[8] = read-out: T. gondii growth EC50, tachyzoites

Row | Structure (SMILES) | EC50 [1] [µM] | EC50 (T. gondii (tachyzoites) [2]; [7]) [µM] | EC50 (T. gondii (tachyzoites) [2]; [8]) [µM] | EC50 (T. cruzi (amastigotes) [3]) [µM] | antiparasitic activity against T. cruzi (in words) (T. cruzi (amastigotes) [3]) | IC50 (HhFPPS) [µM] | IC50 (TgFPPS) [µM] | other results
1 | N#CSCCOc1cccc(Oc2cccc(F)c2)c1 [Compound 21, 3-(3-Fluorophenoxy)phenoxyethyl Thiocyanate] | > 50 | 1.6 | 1.63 ± 0.36 | 5.38 ± 0.82 | – | – | – | –
2 | N#CSCCOc1ccc(Oc2ccccc2)cc1 [WC-9, 4-Phenoxyphenoxyethyl thiocyanate] | – | – | – | – | – | – | – | EC50 (T. cruzi (amastigotes) [4]): 5 ± 1.1 µM; type of inhibition of TcSQS [5]: non-competitive; EC50 (T. gondii (tachyzoites) [6]): 4.8 ± 0.41 µM
3 | N#CSCCOc1ccc(Oc2ccccc2F)cc1 [Compound 27, 4-(2-Fluorophenoxy)phenoxyethyl Thiocyanate] | > 55 | 4.5 | 4.54 ± 0.57 | – | devoid of antiparasitic activity | – | – | –
4 | N#CSCCOc1cccc(Oc2ccccc2F)c1 [Compound 20, 3-(2-Fluorophenoxy)phenoxyethyl Thiocyanate] | > 60 | 3.1 | 3.12 ± 0.37 | 7.01 ± 0.51 | – | – | – | –
5 | O=P(O)(O)C(CSCCOc1cccc(Oc2ccccc2)c1)P(=O)(O)O [Compound 58, 2-[3-(Phenoxy)phenoxyethylthio]ethyl-1,1-bisphosphonic Acid] | – | – | 0.67 ± 0.23 | > 10 | devoid of activity | > 10 | 0.076 ± 0.019 | EC50 (Vero cells): > 100 µM; EC50 (T. gondii (tachyzoites) [2]; read-out: T. gondii growth EC50, tachyzoites, listed as 2-[3-(phenoxy)phenoxyethylthio]ethyl-1,1-bisphosphonate): 0.7 µM
6 | N#CSCCOc1ccc(Oc2ccncc2)cc1 [Compound 31, 4-(4-pyridyl)oxyphenoxyethyl Thiocyanate] | > 200 | 7.9 | – | – | free of antiparasitic activity | – | – | –
7 | O=P(O)(O)C(CNCCOc1ccccc1)P(=O)(O)O [Compound 63, 1-[(Phenoxyethylamino)ethyl]-1,1-bisphosphonic Acid] | – | – | > 10 | > 10 | – | > 10 | 0.18 ± 0.015 | IC50 (TcFPPS): 0.32 ± 0.04 µM
8 | N#CSCCOc1ccc2ccccc2c1 [Compound 68, 2-(Naphthalen-2-yloxy)ethyl Thiocyanate] | – | 3.6 | – | – | vanishing inhibitory action | – | – | –
9 | O=P(O)(O)C(CNCCOc1ccc(Oc2ccccc2)cc1)P(=O)(O)O [Compound 43, 1-[(4-Phenoxyphenoxyethylamino)ethyl]-1,1-bisphosphonic Acid] | – | – | 5.9 ± 0.07 | > 10 | – | > 10 | 0.094 ± 0.02 | EC50 (Vero cells): > 100 µM
10 | O=P(O)(O)C(CNCCOc1cccc(Oc2ccccc2)c1)P(=O)(O)O [Compound 53, 1-[(3-Phenoxyphenoxyethylamino)ethyl]-1,1-bisphosphonic Acid] | – | – | 2.4 ± 0.7 | > 10 | devoid of activity | > 10 | 0.04 ± 0.002 | EC50 (Vero cells): > 50 µM; IC50 (TcFPPS): > 10 µM
11 | COCCCOc1ccc(C#C[C@@]2(O)CN3CCC2CC3)c(Cc2ccccc2)n1 [ER-119884] | – | – | – | – | – | – | – | type of inhibition of TcSQS [5]: non-competitive; IC50 [5]: 0.0035 µM
12 | N#CSCCOc1cccc2ccccc12 [Compound 73, 2-(Naphthalen-1-yloxy)ethyl Thiocyanate] | 7.5 | 3.1 | – | – | vanishing inhibitory action | – | – | –
13 | CO[C@@H]1CN(c2ccc(C#C[C@]3(O)CN4CCC3CC4)c(Cc3ccccc3)n2)C[C@@H]1O [Compound E5700] | – | – | – | – | – | – | – | type of inhibition of TcSQS [5]: mixed-type; IC50 [5]: 0.00084 µM
14 | O=P(O)(O)C(CSCCOc1ccc(Oc2ccccc2)cc1)P(=O)(O)O [Compound 48] | – | – | > 10 | > 20 | – | > 15 | 0.362 ± 0.002 | EC50 (Vero cells): > 200 µM; IC50 (TcFPPS): 0.8 ± 0.12 µM
15 | N#CSCCOc1cccc(Oc2ccc(F)cc2)c1 [Compound 22, 3-(4-Fluorophenoxy)phenoxyethyl Thiocyanate] | > 55 | 4.9 | 4.92 ± 1.94 | 5.69 ± 0.47 | – | – | – | –
